Measured values taken from ChEMBL document CHEMBL5634137, “2,4-Diacetylphloroglucinol (DAPG) derivatives rapidly eradicate methicillin-resistant staphylococcus aureus without resistance development by disrupting membrane” (Eur J Med Chem, 2023).
In brackets after ≈: the same amount, converted by molar mass. Activity calls are given as the source filed them. The calls are words filed in the database; no cut-off is given here.

Legend:
Staphylococcus aureus [1] = assay: Antibacterial activity against Methicillin-resistant Staphylococcus aureus USA300 assessed as inhibition of bacterial growth incubated for 24 hrs by broth dilution method; format: functional
Escherichia coli = assay: Antibacterial activity against Escherichia coli ATCC 11775 assessed as inhibition of bacterial growth incubated for 24 hrs by broth dilution method; format: functional
Klebsiella pneumoniae = assay: Antibacterial activity against Klebsiella pneumoniae […] assessed as inhibition of bacterial growth incubated for 24 hrs by broth dilution method; format: functional
Pseudomonas aeruginosa = assay: Antibacterial activity against Pseudomonas aeruginosa […] assessed as inhibition of bacterial growth incubated for 24 hrs by broth dilution method; format: functional
Staphylococcus aureus [2] = assay: Bactericidal against methicillin-resistant Staphylococcus aureus ATCC 4330 assessed as inhibition of bacterial growth incubated for 24 hrs by broth dilution method; format: functional
Staphylococcus aureus [3] = assay: Bactericidal activity against methicillin-resistant Staphylococcus aureus ATCC 3392 assessed as inhibition of bacterial growth incubated for 24 hrs by broth dilution method; format: functional
Staphylococcus aureus [4] = assay: Antibacterial activity against methicillin-resistant Staphylococcus aureus ATCC 4330 assessed as inhibition of bacterial growth incubated for 24 hrs by broth dilution method; format: functional
Staphylococcus aureus [5] = assay: Antibacterial activity against methicillin-resistant Staphylococcus aureus ATCC 3392 assessed as inhibition of bacterial growth incubated for 24 hrs by broth dilution method; format: functional
Staphylococcus aureus [6] = assay: Selectivity index, ratio of MBC for bactericidal against methicillin-resistant Staphylococcus aureus ATCC 4330 to MIC for antibacterial activity against methicillin-resistant Staphylococcus aureus ATCC 4330; format: functional
Staphylococcus aureus [7] = assay: Selectivity index, ratio of MBC for bactericidal against methicillin-resistant Staphylococcus aureus ATCC 3392 to MIC for antibacterial activity against methicillin-resistant Staphylococcus aureus ATCC 3392; format: functional
[8] = Cytotoxicity against mouse RAW264.7 cells assessed as survival rate incubated for 24 hrs by MTT assay; format: toxicity, cell-based; parameters: concentration or dose not given beside the values; conditions: read-out: Survival
[9] = Cytotoxicity against human L02 cells assessed as survival rate incubated for 24 hrs by MTT assay; format: toxicity, cell-based; parameters: concentration or dose not given beside the values; conditions: read-out: Survival
Staphylococcus aureus [10] = assay: Induction of morphological changes in Staphylococcus aureus USA300 assessed as appearance of wrinkled cell surface at 2 to 4 times MIC by SEM analysis; format: functional, organism-based
Staphylococcus aureus [11] = assay: Antibacterial activity against Methicillin-resistant Staphylococcus aureus USA300 assessed as decrease in number of colonies at 0.5 times MIC incubated for 2 to 5 hrs by time-kill kinetics assay; format: functional, organism-based; conditions: time 2-5 hrs
Staphylococcus aureus [12] = assay: Antibacterial activity against Methicillin-resistant Staphylococcus aureus USA300 assessed as decrease in number of colonies at 1 to 4 times MIC incubated upto 8 hrs by time-kill kinetics assay; format: functional, organism-based
Staphylococcus aureus [13] = assay: Antibacterial activity against Methicillin-resistant Staphylococcus aureus USA300 assessed as decrease in number of colonies incubated for 0.5 hrs by time-kill kinetics assay; format: functional, organism-based
Staphylococcus aureus [14] = assay: Antibiofilm activity against Methicillin-resistant Staphylococcus aureus USA300 assessed as inhibition of biofilm formation at 0.25 times MIC by crystal violet staining based assay; format: functional; parameters: scale not given: the % may be the effect or the level left
Staphylococcus aureus [15] = assay: Antibiofilm activity against Methicillin-resistant Staphylococcus aureus USA300 assessed as inhibition of biofilm formation at 0.5 times MIC by crystal violet staining based assay; format: functional; parameters: scale not given: the % may be the effect or the level left
Staphylococcus aureus [16] = assay: Antibiofilm activity against Methicillin-resistant Staphylococcus aureus USA300 assessed as biofilm eradication at 16 times MIC by crystal violet staining based assay; format: functional
Staphylococcus aureus [17] = assay: Antibiofilm activity against Methicillin-resistant Staphylococcus aureus USA300 assessed as biofilm eradication at 32 times MIC by crystal violet staining based assay; format: functional
Staphylococcus aureus [18] = assay: Inhibition of staphyloxanthin biosynthesis in Methicillin-resistant Staphylococcus aureus ATCC 3392 assessed as reduction in 4,4-diaponeurosporenic acid formation at 0.125 to 0.625 times MIC by nanodrop spectrophotometer analysis; format: functional, organism-based
Staphylococcus aureus [19] = assay: Inhibition of staphyloxanthin biosynthesis in Methicillin-resistant Staphylococcus aureus ATCC 3392 assessed as reduction in 4,4-Diaponeurosporene formation at 0.125 to 0.625 times MIC by nanodrop spectrophotometer analysis; format: functional, organism-based
Staphylococcus aureus [20] = assay: Inhibition of staphyloxanthin biosynthesis in Methicillin-resistant Staphylococcus aureus ATCC 3392 assessed as reduction in Staphyloxanthin formation at 0.125 to 0.625 times MIC by nanodrop spectrophotometer analysis; format: functional, organism-based
Staphylococcus aureus [21] = assay: Inhibition of staphyloxanthin biosynthesis in Methicillin-resistant Staphylococcus aureus ATCC 3392 assessed as reduction in 4,4-Diapophytoene formation at 0.125 to 0.625 times MIC by nanodrop spectrophotometer analysis; format: functional, organism-based
Staphylococcus aureus [22] = assay: Induction of resistance development in methicillin resistant Staphylococcus aureus USA300 at 25 to 150 microg/ml measured upto 65 days; format: functional; conditions: dose 25-150 µg/ml, time <= 65.0 day
Staphylococcus aureus [23] = assay: Induction of resistance development in methicillin resistant Staphylococcus aureus USA300 assessed as fold increase in MIC measured upto 65 days; format: functional; conditions: time <= 65.0 day
Cell membrane [24] = assay: Induction of inner membrane permeabilization in Staphylococcus aureus USA300 assessed as increase in fluorescence intensity at 1 times MIC incubated for 90 mins by SYTOX staining based analysis
Cell membrane [25] = assay: Induction of inner membrane permeabilization in Staphylococcus aureus USA300 assessed as increase in fluorescence intensity at 2 times MIC incubated for 40 mins by SYTOX staining based analysis; format: cell membranes
Cell membrane [26] = assay: Induction of inner membrane permeabilization in Staphylococcus aureus USA300 assessed as increase in fluorescence intensity incubated for 90 mins by SYTOX staining based analysis; format: cell membranes
Cell membrane [27] = assay: Induction of cell membrane damage in Staphylococcus aureus USA300 assessed as nucleic acid leakage at 1 to 2 times MIC by confocal laser scanning microscopic analysis; format: cell membranes
Cell membrane [28] = assay: Induction of cell membrane damage in Staphylococcus aureus USA300 assessed as nucleic acid leakage at 4 to 8 times MIC measured for 3 hrs by confocal laser scanning microscopic analysis; format: cell membranes
Cell membrane [29] = assay: Induction of cell membrane damage in Staphylococcus aureus USA300 assessed as intracellular ATP leakage at 1 to 8 times MIC by confocal laser scanning microscopic analysis; format: cell membranes
Cell membrane [30] = assay: Induction of cell membrane damage in Staphylococcus aureus USA300 assessed as intracellular ATP leakage at 16 times MIC by confocal laser scanning microscopic analysis; format: cell membranes
Cell membrane [31] = assay: Induction of cell membrane damage in Staphylococcus aureus USA300 assessed as increase in red fluorescence intensity at 2 times MIC by confocal laser scanning microscopic analysis; format: cell membranes
Staphylococcus aureus [32] = assay: Induction of morphological changes in Staphylococcus aureus USA300 assessed as appearance of broken cell surface at 2 to 4 times MIC by SEM analysis; format: functional, organism-based
Staphylococcus aureus [33] = assay: Synergistic antibacterial activity against Methicillin-resistant Staphylococcus aureus USA300 assessed as oxacillin MIC incubated for 24 hrs by checkboard method (reference value: 2 microg/ml); format: functional
Staphylococcus aureus [34] = assay: Synergistic antibacterial activity against Methicillin-resistant Staphylococcus aureus USA300 assessed as amoxicillin MIC incubated for 24 hrs by checkboard method (reference value: 8 microg/ml); format: functional
Staphylococcus aureus [35] = assay: Additive antibacterial activity against Methicillin-resistant Staphylococcus aureus USA300 assessed as doxycycline MIC incubated for 24 hrs by checkboard method(reference value: 0.125 microg/ml); format: functional
Staphylococcus aureus [36] = assay: Synergistic antibacterial activity against Methicillin-resistant Staphylococcus aureus USA300 assessed as fractional inhibitory concentration index in presence of oxacillin by checkboard method; format: functional
Staphylococcus aureus [37] = assay: Synergistic antibacterial activity against Methicillin-resistant Staphylococcus aureus USA300 assessed as fractional inhibitory concentration index in presence of amoxicillin by checkboard method; format: functional
Staphylococcus aureus [38] = assay: Additive antibacterial activity against Methicillin-resistant Staphylococcus aureus USA300 assessed as fractional inhibitory concentration index in presence of doxycycline by checkboard method; format: functional
Staphylococcus aureus [39] = assay: Antibacterial activity against Methicillin-resistant Staphylococcus aureus USA300 infected in mouse skin infection model assessed as reduction in number of bacteria at 10 mg/kg, sc administered every 12 hrs for 3 days; format: functional
Staphylococcus aureus [40] = assay: Synergistic antibacterial activity against Methicillin-resistant Staphylococcus aureus USA300 infected in mouse skin infection model assessed as reduction in number of bacteria at 10 mg/kg, sc in presence of oxacillin administered every 12 hrs for 3 days; format: functional; conditions: time 3 day
[41] = Toxicity in mouse assessed as change in body weight at 10 mg/kg, sc administered every 12 hrs for 4 days; format: organism-based; conditions: in vivo, 96 h, time 4 day

**Q.** What does the source list for `CCCCC(=O)c1c(O)cc(O)c(C(=O)C(C)CC)c1O` (centres undefined)?
**A.** MIC (Staphylococcus aureus [1]): 1 µg/mL (≈ 3.4 µM); MIC (Escherichia coli): > 64 µg/mL; MIC (Klebsiella pneumoniae): > 64 µg/mL; MIC (Pseudomonas aeruginosa): > 64 µg/mL; MBC (Staphylococcus aureus [2]): 4 µg/mL (≈ 13.6 µM); MBC (Staphylococcus aureus [3]): 8 µg/mL (≈ 27.2 µM); MIC (Staphylococcus aureus [4]): 1 µg/mL (≈ 3.4 µM); MIC (Staphylococcus aureus [5]): 1 µg/mL (≈ 3.4 µM); Selectivity Index (Staphylococcus aureus [6]): 4; Selectivity Index (Staphylococcus aureus [7]): 8; viability at 24 h [8]: 76%; viability at 24 h [9]: 75%

**Q.** What does the source list for `CCCCCCC(=O)c1c(O)cc(O)c(C(=O)CCCCCC)c1O`?
**A.** MIC (Staphylococcus aureus [1]): 0.5 µg/mL (≈ 1.43 µM); MIC (Escherichia coli): > 64 µg/mL; MIC (Klebsiella pneumoniae): > 64 µg/mL; MIC (Pseudomonas aeruginosa): > 64 µg/mL; Activity (Staphylococcus aureus [10]): Active; MBC (Staphylococcus aureus [2]): 1 µg/mL (≈ 2.85 µM); MBC (Staphylococcus aureus [3]): 1 µg/mL (≈ 2.85 µM); MIC (Staphylococcus aureus [4]): 0.5 µg/mL (≈ 1.43 µM); MIC (Staphylococcus aureus [5]): 1 µg/mL (≈ 2.85 µM); Selectivity Index (Staphylococcus aureus [7]): 1; viability at 24 h [8]: 76%; viability at 24 h [9]: 75%; Activity (Staphylococcus aureus [11]): Active; Activity (Staphylococcus aureus [12]): Active; Activity (Staphylococcus aureus [13]): Dose-Dependent Effect; Activity (Staphylococcus aureus [14]): 58%; Activity (Staphylococcus aureus [15]): 95%; Activity (Staphylococcus aureus [16]): 37%; Activity (Staphylococcus aureus [17]): ~50%; inhibition (Staphylococcus aureus [18]): Active; inhibition (Staphylococcus aureus [19]): Active; inhibition (Staphylococcus aureus [20]): Active; inhibition (Staphylococcus aureus [21]): inactive; Activity (Staphylococcus aureus [22]): Active; fold change (FC) (Staphylococcus aureus [23]): 256; Activity (Cell membrane [24]): Active; Activity (Cell membrane [25]): Active; Activity (Cell membrane [26]): Dose-Dependent Effect; Activity (Cell membrane [27]): inactive; Activity (Cell membrane [28]): Active; Activity (Cell membrane [29]): Active; Activity (Cell membrane [30]): 70%; Activity (Cell membrane [31]): Active; Activity (Staphylococcus aureus [32]): Active; MIC (Staphylococcus aureus [33]): 0.125 µg/mL; MIC (Staphylococcus aureus [34]): 0.125 µg/mL; MIC (Staphylococcus aureus [35]): 0.25 µg/mL; fractional inhibitory concentration index (FICI) (Staphylococcus aureus [36]): 0.375; fractional inhibitory concentration index (FICI) (Staphylococcus aureus [37]): 0.312; fractional inhibitory concentration index (FICI) (Staphylococcus aureus [38]): 0.75; Activity (Staphylococcus aureus [39]; time 3 day): 1.5 log10CFU/g; Activity (Staphylococcus aureus [40]): 2.5 log10CFU/g; Activity [41]: Non-Toxic

**Q.** Which results are given for `CN[C@H](CC(C)C)C(=O)N[C@H]1C(=O)N[C@@H](CC(N)=O)C(=O)N[C@H]2C(=O)N[C@H]3C(=O)N[C@H](C(=O)N[C@H](C(=O)O)c4cc(O)cc(O)c4-c4cc3ccc4O)[C@H](O)c3ccc(c(Cl)c3)Oc3cc2cc(c3O[C@@H]2O[C@H](CO)[C@@H](O)[C@H](O)[C@H]2O[C@H]2C[C@](C)(N)[C@H](O)[C@H](C)O2)Oc2ccc(cc2Cl)[C@H]1O` [VANCOMYCIN]?
**A.** MIC (Escherichia coli): > 64 µg/mL; MIC (Klebsiella pneumoniae): > 64 µg/mL; MIC (Pseudomonas aeruginosa): > 64 µg/mL; Activity (Staphylococcus aureus [39]; time 3.0 day): inactive
